{"source": "patent US10960013B2", "about": "“J-series prostaglandin-ethanolamides as novel therapeutics for skin and/or oral disorders” (East Carolina University, priority 2016, dated 2021)", "key": {"CHOP10": {"tested_on": "CHOP10", "assay": "CHOP10 expression (ER stress) in excised tumor sections", "type": "in vivo, C57BL/6 mice", "settings": "0.5 mg/kg for 5 days", "protocol": "(§1) To assess the in vivo antineoplastic action of 15dPMJ2, the subcutaneous mouse tumor model was utilized. Melanoma cells were subcutaneously implanted in the flank region of C57BL/6 mice and treated with 0.5 mg/kg 15dPMJ2, vehicle [0.1% DMSO in phosphate buffered saline (PBS)], or were untreated. […] To determine if 15dPMJ2 induced ER stress the expression of CHOP10 was detected in the tumor sections."}, "[1]": {"tested_on": "tumorigenic (JWF2) and non-tumorigenic (HaCaT) cells", "assay": "Cell viability (MTS) of tumorigenic and non-tumorigenic keratinocytes treated with 15dPMJ2", "type": "cell-based", "settings": "12 hours", "protocol": "Tumorigenic and non-tumorigenic keratinocytes were treated with different concentrations of 15dPMJ2, vehicle, or were untreated for 12 hours. Cell viability was detected by conducting MTS experiments. Data represent the mean±SEM of three independent experiments and are expressed as the percent of the untreated cells. *P<0.01.\nas §1"}, "[2]": {"tested_on": "Melanoma cells subcutaneously implanted in the flank region of C57BL/6 mice", "assay": "Subcutaneous mouse tumor model, tumor weight", "type": "in vivo", "settings": "0.5 mg/kg for 5 days; compared to vehicle and untreated animals; P<0.01", "protocol": "Tumors grown in C57BL/6 mice were either untreated (UT), vehicle treated (VEH), or treated with 0.5 mg/kg 15dPMJ2 for 5 days. Tumor weights were determined. #P<0.01 compared to untreated; *P<0.01 compared to vehicle treated (one-way ANOVA with Tukey's post-hoc test).\nas §1"}}, "note": "Entries after “also recorded” stand apart in the source; their conditions may differ.", "data": [{"compound": "CCCCC/C=C/C=C1/C(=O)C=CC1C/C=C/CCCC(=O)NCCO", "note": "(stereo not shown) [15dPMJ2, 15-deoxy Δ^12,14-prostagladin J2-ethanolamide]", "values": [{"measurement": "CHOP10 expression in the tumors (ER stress)", "setting": "CHOP10", "value": "markedly increased CHOP10 expression; also recorded: increases ER stress"}, {"measurement": "toxicity towards tumorigenic keratinocytes relative to non-tumorigenic keratinocytes", "setting": "[1]; at 5 μM, JWF2 vs HaCaT, MTS cell viability", "value": 4, "unit": "fold"}, {"measurement": "selective toxicity (cell viability, tumorigenic vs non-tumorigenic keratinocytes)", "setting": "[1]; different concentrations, MTS", "value": "selectively toxic"}, {"measurement": "tumor weight / solid tumor growth", "setting": "[2]", "value": "statistically significant reduction in tumor weight; also recorded: inhibits solid tumor growth"}]}]}
